Values of other authors as cited in patent publication US11526092B2, “Electrophotographic photoreceptor, process cartridge, and image forming apparatus” (FUJIFILM Business Innovation Corp., priority 2019, dated 2022).

Settings: in water at 25° C.; first acid dissociation constant (pKa1)

CCCCCCCCCCCCc1ccc(S(=O)(=O)O)cc1 [DBS, dodecylbenzenesulfonic acid]
Acidic compound pKa: −2
